# Source: patent US11760752B2, “Carboxylic acid, acyl sulfonamide and acyl sulfamide-derivatized bicyclic aza-heteroaromatics as selective Mcl-1 inhibitors and as dual Mcl-1/Bcl-2 inhibitors” (University of Maryland, Baltimore, priority 2019, dated 2023)
# Read-outs that look alike come from different tables or passages of the source.
# Tests used:
# BCL-XL [1] = target: T1, BCL-XL (Homo sapiens (Human), UniProt Q07817); assay: Fluorescence polarization competition assay (FPCA), displacement of FITC-Bak from BCL-XL; assay type: binding
# Description: (§1) These values were determined from a fluorescence polarization competition assay involving a fluorescently labeled peptide (BAK) bound to the desired Bcl-2 anti-apoptotic protein. […] These inhibition constants are the concentrations at which the indazole derivatives can displace 50% of BAK from the indicated Bcl-2 anti-apoptotic proteins.
# (§2) The concentrated peptide stocks were prepared in DMSO and the concentration of the peptide was determined in water at pH 8.0 using the extinction coefficient for amide-linked FITC of λ494=68,000 cm^−1M^−1.
# (§3) The fluorescence polarization assays were performed in 96 well polypropylene F-bottom black microplates (Greiner Bio-One) with a final volume of 100 μL.
# (§4) The fluorescence polarization competition assays were setup using a Biomek FXP Automated Liquid Handling System. […] The IC50 values were then converted to Ki values using an equation derived by Nikolovska-Coleska et al. All inhibitors were tested in triplicate.
# Target sequence in this assay (Q07817 1-212): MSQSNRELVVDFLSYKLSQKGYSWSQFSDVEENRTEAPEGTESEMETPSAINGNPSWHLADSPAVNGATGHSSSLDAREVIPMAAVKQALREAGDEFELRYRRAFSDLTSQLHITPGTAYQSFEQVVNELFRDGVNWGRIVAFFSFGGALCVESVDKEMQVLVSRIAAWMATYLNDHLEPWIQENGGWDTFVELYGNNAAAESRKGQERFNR
# BCL-2 = BCL-2 (Homo sapiens (Human), UniProt P10415); assay: Fluorescence polarization competition assay (FPCA), displacement of FITC-Bak from BCL-2; assay type: binding
# Description: as §1, §2, §3, §4
# MCL-1 = MCL-1 (Homo sapiens (Human), UniProt Q07820); assay: Fluorescence polarization competition assay (FPCA), displacement of FITC-Bak from MCL-1; assay type: binding
# BCL-XL [2] = target: T1, BCL-XL; details: relative to BCL-2; cited from earlier work
# Target sequence in this assay (Q07817 whole entry, species assumed): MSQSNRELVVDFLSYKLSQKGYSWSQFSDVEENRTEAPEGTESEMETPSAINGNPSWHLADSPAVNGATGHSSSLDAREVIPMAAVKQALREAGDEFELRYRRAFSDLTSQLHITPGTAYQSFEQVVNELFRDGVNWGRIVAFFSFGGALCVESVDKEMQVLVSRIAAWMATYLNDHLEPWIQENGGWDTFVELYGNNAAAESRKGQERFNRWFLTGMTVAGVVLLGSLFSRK
# [3] = Table 3, FITC-Bak peptide displacement, read-out: MCL-1 Affinity Ki
# [4] = Table 3, FITC-Bak peptide displacement, read-out: BCL-XL Affinity Ki
# [5] = Table 3, FITC-Bak peptide displacement, read-out: BCL-2 Affinity Ki
# [6] = Table 5, heterocyclic core SAR, read-out: MCL-1 Ki
# [7] = Table 8, N-1-alkylated isomers, read-out: BCL-2 Ki
# Sequence of BCL-2 (P10415 1-211): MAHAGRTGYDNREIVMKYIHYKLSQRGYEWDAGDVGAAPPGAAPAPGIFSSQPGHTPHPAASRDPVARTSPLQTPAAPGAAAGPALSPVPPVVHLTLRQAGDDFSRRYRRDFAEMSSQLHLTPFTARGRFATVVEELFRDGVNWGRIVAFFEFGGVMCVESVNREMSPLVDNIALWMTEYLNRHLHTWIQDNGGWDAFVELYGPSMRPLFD
# Sequence of MCL-1 (Q07820 172-327): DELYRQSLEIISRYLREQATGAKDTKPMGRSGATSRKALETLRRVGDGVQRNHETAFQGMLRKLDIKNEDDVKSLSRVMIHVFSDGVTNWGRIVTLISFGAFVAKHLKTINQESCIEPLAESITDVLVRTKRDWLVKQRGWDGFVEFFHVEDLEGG
Compound,Ki (MCL-1; [3]) [nM],Ki (BCL-XL [1]; [4]) [nM],Ki (BCL-2; [5]) [nM],other results
Cc1cc(Oc2ccc(Cn3nc(C(=O)NS(=O)(=O)c4ccc(NCc5cccnc5)c([N+](=O)[O-])c4)c4cc(Cl)ccc43)cc2)cc(C)c1Cl [NB-1-087],520 ± 30,–,–,Ki (BCL-XL [1]; read-out: BCL-XL Affinity Ki): 557 ± 80 nM; Ki (BCL-2; read-out: BCL-2 Affinity Ki): 611 ± 200 nM
Cc1cc(OCCCn2nc(C(=O)NS(=O)(=O)c3ccc(NCc4ccco4)c([N+](=O)[O-])c3)c3cc(Cl)ccc32)cc(C)c1Cl [BD-3-180],480 ± 30,597 ± 180,572 ± 50,–
Cc1cc(OCCCn2nc(C(=O)NS(=O)(=O)c3ccc(NCC4CCCO4)c([N+](=O)[O-])c3)c3cc(Cl)ccc32)cc(C)c1Cl (stereo not drawn) [BD-3-184],690 ± 30,840 ± 140,1170 ± 160,–
"Cc1cc(Oc2ccc(Cn3nc4ccc(Cl)cc4c3C(=O)O)cc2)cc(C)c1Cl [compound 12, 5-chloro-2-(4-(4-chloro-3,5-dimethylphenoxy)benzyl)-2H-indazole-3-carboxylic acid]",–,–,–,Ki (BCL-2; read-out: BCL-2 Ki): 1450 ± 75 nM; Ki (MCL-1; [6]): 2360 ± 290 nM; Ki (MCL-1; read-out: MCL-1 Ki): 2360 ± 290 nM
Cc1cc(Oc2ccc(Cn3nc(C(=O)NS(=O)(=O)c4ccc([N+](=O)[O-])c(NCc5ccco5)c4)c4cc(Cl)ccc43)cc2)cc(C)c1Cl [CG-1-019],1140 ± 50,325 ± 50,384 ± 30,–
Cc1cc(Oc2ccc(Cn3nc(C(=O)NS(=O)(=O)c4ccc(NCCN5CCOCC5)c([N+](=O)[O-])c4)c4cc(Cl)ccc43)cc2)cc(C)c1Cl [NB-1-088],750 ± 60,–,–,Ki (BCL-2; read-out: BCL-2 Affinity Ki): 738 ± 190 nM
Cc1cc(OCCCn2nc(C(=O)NS(=O)(=O)c3ccc(NCc4cccnc4)c([N+](=O)[O-])c3)c3cc(Cl)ccc32)cc(C)c1Cl [BD-3-181],840 ± 50,574 ± 110,694 ± 90,–
Cc1cc(Oc2ccc(Cn3nc(C(=O)NS(=O)(=O)c4ccc(N5CCOCC5)c([N+](=O)[O-])c4)c4cc(Cl)ccc43)cc2)cc(C)c1Cl [NB-1-086],320 ± 10,–,–,Ki (BCL-XL [1]; read-out: BCL-XL Affinity Ki): 840 ± 228 nM; Ki (BCL-2; read-out: BCL-2 Affinity Ki): 569 ± 40 nM
"Cc1cc(OCCCn2c(C(=O)O)nc3ccccc32)cc(C)c1Cl [compound 5, 1-(3-(4-chloro-3,5-dimethylphenoxy)propyl)-1H-benzo[d]imidazole-2-carboxylic acid]",–,–,–,Ki (MCL-1; [6]): > 10000 nM; Ki (MCL-1; read-out: MCL-1 Ki): > 10000 nM
"Cc1cc(OCCCn2nc3ccc(Cl)cc3c2C(=O)O)cc(C)c1Cl [compound 10, 5-chloro-2-(3-(4-chloro-3,5-dimethylphenoxy)propyl)-2H-indazole-3-carboxylic acid]",–,–,–,Ki (MCL-1; [6]): > 10000 nM; Ki (MCL-1; read-out: MCL-1 Ki): > 10000 nM
"CC1(C)CCC(CN2CCN(c3ccc(C(=O)NS(=O)(=O)c4ccc(NCC5CCOCC5)c([N+](=O)[O-])c4)c(Oc4cnc5[nH]ccc5c4)c3)CC2)=C(c2ccc(Cl)cc2)C1 [venetoclax, Venetoclax]",–,–,–,"BCL-XL affinity, fold lower than BCL-2 (BCL-XL [2]): more than 100 fold"
"Cc1cc(Oc2ccc(Cn3nc4cc(Cl)ccc4c3C(=O)O)cc2)cc(C)c1Cl [compound 49, 6-chloro-2-(4-(4-chloro-3,5-dimethylphenoxy)benzyl)-2H-indazole-3-carboxylic acid]",–,–,–,Ki (MCL-1; [6]): 1760 ± 550 nM; Ki (MCL-1; read-out: MCL-1 Ki): 1760 ± 550 nM
Cc1cc(Oc2ccc(Cn3nc(C(=O)NS(=O)(=O)c4ccc([N+](=O)[O-])c(N5CCOCC5)c4)c4cc(Cl)ccc43)cc2)cc(C)c1Cl [CG-1-016],370 ± 20,436 ± 70,451 ± 40,–
Cc1cc(OCCCn2nc(C(=O)NS(=O)(=O)c3ccc(NCC4CCN(C)CC4)c([N+](=O)[O-])c3)c3cc(Cl)ccc32)cc(C)c1Cl [BD-3-190],–,–,–,Ki (BCL-2; read-out: BCL-2 Affinity Ki): 8930 ± 290 nM
CCN1CCN(c2cc(S(=O)(=O)NC(=O)c3nn(Cc4ccc(Oc5cc(C)c(Cl)c(C)c5)cc4)c4ccc(Cl)cc34)ccc2[N+](=O)[O-])CC1 [CG-1-023],12400 ± 370,–,–,Ki (BCL-2; read-out: BCL-2 Affinity Ki): 74300 ± 11500 nM
"Cc1cc(OCCn2nc3ccc(Cl)cc3c2C(=O)O)cc(C)c1Cl [compound 11, 5-chloro-2-(2-(4-chloro-3,5-dimethylphenoxy)ethyl)-2H-indazole-3-carboxylic acid]",–,–,–,Ki (MCL-1; [6]): > 10000 nM; Ki (MCL-1; read-out: MCL-1 Ki): > 10000 nM
Cc1cc(Oc2ccc(Cn3nc(C(=O)O)c4cc(Cl)ccc43)cc2)cc(C)c1Cl [NB-1-070],910 ± 50,–,–,Ki (BCL-XL [1]; read-out: BCL-XL Affinity Ki): 2010 ± 350 nM; Ki (BCL-2; read-out: BCL-2 Affinity Ki): 1040 ± 190 nM
Cc1cc(Oc2ccc(Cn3nc(C(=O)NS(=O)(=O)c4ccc(NCc5ccco5)c([N+](=O)[O-])c4)c4cc(Cl)ccc43)cc2)cc(C)c1Cl [NB-1-089],260 ± 10,551 ± 70,266 ± 20,–
Cc1cc(OCCCn2nc(C(=O)O)c3cc(Cl)ccc32)cc(C)c1Cl [BD-3-173],5800 ± 360,–,–,Ki (BCL-2; read-out: BCL-2 Affinity Ki): 5790 ± 620 nM
Cc1cc(Oc2ccc(Cn3nc(C(=O)NS(=O)(=O)c4ccc([N+](=O)[O-])c(NCc5cccnc5)c4)c4cc(Cl)ccc43)cc2)cc(C)c1Cl [CG-1-018],480 ± 30,436 ± 70,384 ± 30,–
"Cc1cc(Oc2ccc(Cn3nc(C(=O)O)c4cc(Cl)ccc43)cc2)cc(C)c1Cl [compound 50, 5-chloro-1-(4-(4-chloro-3,5-dimethylphenoxy)benzyl)-1H-indazole-3-carboxylic acid]",–,–,–,"Ki (MCL-1; Table 8, N-1-alkylated isomers, read-out: MCL-1 Ki): 1580 ± 360 nM"
"Cc1cc(Oc2ccc(Cn3nc(C(=O)NS(=O)(=O)c4ccc(NCc5cccnc5)c([N+](=O)[O-])c4)c4cc(Cl)ccc43)cc2)cc(C)c1Cl [compound 52, 5-chloro-1-(4-(4-chloro-3,5-dimethylphenoxy)benzyl)-N-((3-nitro-4-((pyridin-3-ylmethyl)amino)phenyl)sulfonyl)-1H-indazole-3-carboxamide]",–,–,–,BCL-XL affinity (in words) (BCL-XL [1]): no affinity; BCL-2 binding affinity (in words) (BCL-2): within the nanomolar range; Ki (BCL-2; [7]): 690 ± 110 nM; Ki (MCL-1): > 10000 nM
Cc1cc(OCCCc2c(C(=O)O)n(C)c3cc(Cl)ccc23)cc(C)c1Cl,–,–,–,"Ki (BCL-XL [1]; Table 4, FPCA data for control compounds, read-out: BCL-XL Ki): 1200 ± 160 nM; Ki (BCL-2; Table 4, FPCA data for control compounds, read-out: BCL-2 Ki): > 10000 nM"
Cc1cc(Oc2ccc(Cn3nc(C(=O)NS(=O)(=O)c4ccc(Cl)cc4)c4cc(Cl)ccc43)cc2)cc(C)c1Cl [NB-1-084],280 ± 10,840 ± 228,1090 ± 450,–
"Cc1cc(Oc2ccc(Cn3nc(C(=O)NS(=O)(=O)c4ccc(N5CCOCC5)c([N+](=O)[O-])c4)c4cc(Cl)ccc43)cc2)cc(C)c1Cl [compound 51, 5-chloro-1-(4-(4-chloro-3,5-dimethylphenoxy)benzyl)-N-((4-morpholino-3-nitrophenyl)sulfonyl)-1H-indazole-3-carboxamide]",–,–,–,BCL-XL affinity (in words) (BCL-XL [1]): no affinity; BCL-2 binding affinity (in words) (BCL-2): within the nanomolar range; Ki (BCL-2; [7]): 620 ± 120 nM; Ki (MCL-1): 2220 ± 200 nM
Cc1cc(OCCCn2nc(C(=O)NS(=O)(=O)c3ccc(N4CCOCC4)c([N+](=O)[O-])c3)c3cc(Cl)ccc32)cc(C)c1Cl [BD-3-183],920 ± 30,1060 ± 340,868 ± 130,–
